Measurements taken from US20250136607A1 (REGOR PHARMACEUTICALS, INC., priority 2021, published 2025).
Values joined by “and” are separate entries in the source; they are usually repeats but may differ in a detail not shown here. Equal values may be shown once.

target: Protein arginine deiminase 4 (PAD4) (Homo sapiens, UniProt Q9UM07); assay: PAD4 ammonia release assay; type: biochemical; settings: PAD4 activity comparison; read-out: PAD4 Ammonia assay IC50
Procedure: 1) Compound preparation: The compounds were diluted to 80× final concentrations. 2) The compounds were transferred to a 384-well assay plate by Tecan. DMSO: 1.25%. 3) Preparation of 1×Assay buffer: 100 mM HEPES, PH=8.0, 2 mM CaCl2, 50 mM NaCl, 0.1 mM TCEP, 0.6 mg/ml BSA. 4) 2× enzyme working solution (PAD4:20 nM) was prepared with assay buffer, and 10 μL of the obtained working solution were added to the 384-well assay plates. 5) The plate was centrifuged at 1000 rpm for 1 min. 6) After the centrifuge, the plate was incubated at RT for 15 min. 7) 2×BAEE substrate mix (600 μM) was prepared with assay buffer and 10 μL of the obtained substrate mix were added to each well. 8) The plate was centrifuged at 1000 rpm for 1 min and then incubated at RT for 60 min. 9) 1.5× detection mix (DTT:4 mM, OPA:3 mM, EDTA: 30 mM) was prepared, and 10 μL of the mix were added to the plate. 10) The plate was centrifuged at 1000 rpm for 1 min and then incubated at RT for 120 min. 11) The 384-well plates were placed into the Envision (PerkinElmer) and the assay data were collected.
The percent (%) inhibition at each concentration of compound was calculated based on and relative to the signal in the HPE (50 μM ref. compound) and ZPE (1.25% DMSO) wells included within each assay plate. The HPE worked as 100% inhibition, and the ZPE worked as 0% inhibition. The concentrations and % inhibition values for tested compounds were plotted and the concentration of compound required for 50% inhibition (IC50) was determined with a Four-parameter logistic dose response equation. The endpoint value (IC50) for the reference compound was evaluated in each experiment as a quality control measure. If the endpoint value is within 3-fold of the expected value, then the experiment quality is deemed as acceptable. The results are provided in Table 1 below. ≤0.1 μM=“++++”; >0.1 and ≤0.5 μM=“+++”; >0.5 and ≤5.0 μM=“++”; >5.0 μM=“+”. “−”=not available.

Sequence of Protein arginine deiminase 4 (PAD4) (Q9UM07 whole entry): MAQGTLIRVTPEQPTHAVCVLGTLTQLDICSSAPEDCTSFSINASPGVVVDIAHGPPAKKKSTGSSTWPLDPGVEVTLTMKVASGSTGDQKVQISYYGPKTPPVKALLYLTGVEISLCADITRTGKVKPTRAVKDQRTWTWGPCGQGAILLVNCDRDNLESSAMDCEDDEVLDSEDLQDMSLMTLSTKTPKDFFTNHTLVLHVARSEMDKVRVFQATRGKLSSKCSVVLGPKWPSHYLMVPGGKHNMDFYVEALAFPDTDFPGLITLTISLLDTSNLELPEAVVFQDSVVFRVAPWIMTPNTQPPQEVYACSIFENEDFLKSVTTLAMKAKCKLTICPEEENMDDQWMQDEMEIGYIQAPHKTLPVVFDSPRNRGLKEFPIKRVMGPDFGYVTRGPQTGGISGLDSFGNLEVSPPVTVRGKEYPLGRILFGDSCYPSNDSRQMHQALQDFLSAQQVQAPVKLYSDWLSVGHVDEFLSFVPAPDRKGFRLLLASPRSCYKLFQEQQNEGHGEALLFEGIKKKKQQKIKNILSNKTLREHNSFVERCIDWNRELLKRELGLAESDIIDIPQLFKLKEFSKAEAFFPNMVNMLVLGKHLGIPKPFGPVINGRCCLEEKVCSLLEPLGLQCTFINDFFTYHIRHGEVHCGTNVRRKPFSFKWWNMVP

For `Cn1c(-c2cc3cccc4c3n2CCO4)nc2cc(C(=O)N3CCC[C@@H](N)C3)ccc21` [A, reference compound], the IC50 was ~15.2 µM and 15.2 µM.

Molecule `CC1COc2cccc3cc(-c4nc5cc(C(=O)N6CCC[C@@H](N)C6)ccc5n4C)n1c23` (stereo partly shown) [B, reference compound] has an IC50 of 7.28 µM.

same assay, conditions: PAD4 ammonia release assay, BAEE substrate, 60 min at RT; read-out: Average IC50 Abs

Compared with `Cn1c(-c2cc3cccc4c3n2C(C2CC2)CN4)nc2cc(C(=O)N3C[C@H]4CC[C@@H]3[C@@H]4N)cc(F)c21` (mixture of isomers) [Example 108, ((1R,4R,7R)-7-amino-2-azabicyclo[2.2.1]heptan-2-yl)(2-(3-cyclopropyl-2,3-dihydro-1H-pyrrolo[1,2,3-de]quinoxalin-5-yl)-7-fluoro-1-methyl-1H-benzo[d]imidazol-5-yl)methanone], `Cn1c(-c2cc3cccc4c3n2[C@H](C2CC2)CN4)nc2cc(C(=O)N3C[C@H]4CC[C@@H]3[C@@H]4N)cc(F)c21` (single isomer, unassigned) [Example 109] is higher in IC50: no more than 0.1 µM for the first, 0.5 to 5 µM for the second.

`Cn1c(-c2cc3cccc4c3n2[C@H](C2CC2)CN4CCCO)nc2cc(C(=O)N3C[C@H]4CC[C@@H]3[C@@H]4N)cc(F)c21` (single isomer, unassigned) [Example 113] and `Cn1c(-c2cc3ccc(C#N)c4c3n2[C@H](C2CC2)CN4)nc2cc(C(=O)N3C[C@H]4CC[C@@H]3[C@@H]4N)cc(F)c21` (single isomer, unassigned) [Example 116] fall in the same range of IC50: 0.5 to 5 µM for the first, 0.5 to 5 µM for the second.

Compared with `CC[C@@H]1[C@H](C)Nc2cccc3cc(-c4nc5cc(C(=O)N6C[C@H]7CC[C@@H]6[C@@H]7N)cc(F)c5n4C)n1c23` (single isomer, unassigned) [Example 133], `COc1cc(C(=O)N2C[C@H]3CC[C@@H]2[C@@H]3N)cc2nc(-c3cc4cccc5c4n3CCN5CCCNC(=O)NC3CC3)n(C)c12` [Example 6, 1-(3-(5-(5-((1R,4R,7R)-7-amino-2-azabicyclo[2.2.1]heptane-2-carbonyl)-7-methoxy-1-methyl-1H-benzo[d]imidazol-2-yl)-2,3-dihydro-1H-pyrrolo[1,2,3-de]quinoxalin-1-yl)propyl)-3-cyclopropylurea] is lower in IC50: greater than 5 µM for the first, 0.5 to 5 µM for the second. The second is the more potent here.

`COc1cc(C(=O)N2C[C@H](N)C[C@@H](F)C2)cc2nc(-c3cc4cccc5c4n3CCN5CCCNC(C)=O)n(C)c12` [Example 1, N-(3-(5-(5-((3R,5R)-3-amino-5-fluoropiperidine-1-carbonyl)-7-methoxy-1-methyl-1H-benzo[d]imidazol-82-yl)-2,3-dihydro-1H-pyrrolo[1,2,3-de]quinoxalin-1-yl)propyl)acetamide] and `COc1cc(C(=O)N2C[C@H](N)C[C@@H](F)C2)cc2nc(-c3cc4cccc5c4n3CCN5CCCNC(=O)NC3CC3)n(C)c12` [Example 4, 1-(3-(5-(5-((3R,5R)-3-amino-5-fluoropiperidine-1-carbonyl)-7-methoxy-1-methyl-1H-benzo[d]imidazol-2-yl)-2,3-dihydro-1H-pyrrolo[1,2,3-de]quinoxalin-1-yl)propyl)-3-cyclopropylurea] fall in the same range of IC50: 0.5 to 5 µM for the first, 0.5 to 5 µM for the second.

`COc1cc(C(=O)N2CCC[C@@H](N)C2)cc2nc(-c3cc4cccc5c4n3CCN5CCCNC(C)=O)n(C)c12` [Example 3, (R)—N-(3-(5-(5-(3-aminopiperidine-1-carbonyl)-7-methoxy-1-methyl-1H-benzo[d]imidazol-2-yl)-2,3-dihydro-1H-pyrrolo[1,2,3-de]quinoxalin-1-yl)propyl)acetamide] and `COc1cc(C(=O)N2CCC[C@@H](N)C2)cc2nc(-c3cc4cccc5c4n3CCN5CCCNC(=O)NC3CC3)n(C)c12` [Example 5, (R)-1-(3-(5-(5-(3-aminopiperidine-1-carbonyl)-7-methoxy-1-methyl-1H-benzo[d]imidazol-2-yl)-2,3-dihydro-1H-pyrrolo[1,2,3-de]quinoxalin-1-yl)propyl)-3-cyclopropylurea] fall in the same range of IC50: 0.5 to 5 µM for the first, 0.5 to 5 µM for the second.

With `COc1cc(C(=O)N2CCC[C@@H](N)C2)cc2nc(-c3cc4cccc5c4n3CCN5CCCN)n(C)c12` [Example 7] the IC50 was 0.5 to 5 µM.
